Laboratory results: ChEMBL document CHEMBL1143283, “Preliminary biological evaluations of new thalidomide analogues for multiple sclerosis application” (Bioorg Med Chem Lett, 2009)
Activity calls are given as the source filed them. The rule behind the calls is not given here.

Columns and labels:
Mus musculus [1] = assay: Antiangiogenesis activity against MOG peptide, pertussis toxin, Mycobacterium tuberculosis-induced experimental allergic encephalomyelitis C57BL/6J mouse model assessed as inhibition of multiple sclerosis at dose equivalent to 100 mg/kg of thalidomide up to 15 days; assay type: functional, organism-based; set-up: dose 100 mg/kg
EA.hy 926 [2] = assay: Antiproliferative activity against human EAhy926 cells at 12 uM; assay type: functional, cell-based
EA.hy 926 [3] = assay: Antiproliferative activity against human EAhy926 cells at 10 uM; assay type: functional, cell-based
[4] = Antiproliferative activity against human EAhy926 cells; assay type: functional, cell-based; conditions: EA.hy 926
Mus musculus [5] = assay: Antiangiogenesis activity against MOG peptide, pertussis toxin, Mycobacterium tuberculosis-induced experimental allergic encephalomyelitis C57BL/6J mouse model assessed as inhibition of multiple sclerosis at 100 mg/kg up to 15 days; assay type: functional, organism-based; set-up: dose 100 mg/kg

Compound | Activity (Mus musculus [1]) | IC50 [4] [µM] | other results
O=C1CCC(N2C(=O)c3ccc(C(=O)O)cc3C2=O)C(=O)N1 (stereo not drawn) | Active |  | 
O=C1CCC(N2C(=O)c3ccc([N+](=O)[O-])cc3C2=O)C(=O)N1 (stereo not drawn) |  |  | Activity (EA.hy 926 [2]): inactive; Activity (EA.hy 926 [3]): inactive
Nc1ccc2c(c1)C(=O)N(C1CCC(=O)NC1=O)C2=O (stereo not drawn) | inactive |  | 
CC(C)(C)OC(=O)NCCNc1ccc2c(c1)C(=O)N(C1CCC(=O)NC1=O)C2=O (stereo not drawn) |  | 41 | 
O=C1CCC(N2C(=O)c3ccc(NCCCNC(=O)C(O)C(O)C(O[C@@H]4O[C@H](CO)[C@H](O)[C@H](O)[C@H]4O)C(O)CO)cc3C2=O)C(=O)N1 (stereo partly drawn) | Active |  | 
NCCNc1cccc2c1C(=O)N(C1CCC(=O)NC1=O)C2=O (stereo not drawn) |  | 150 | 
O=C1CCC(N2C(=O)c3ccc(NCCCCC(NC(=O)[C@H](O)[C@H](O)[C@H](O[C@@H]4O[C@H](CO)[C@H](O)[C@H](O)[C@H]4O)[C@H](O)CO)C(=O)NCCC(F)(F)C(F)(F)C(F)(F)C(F)(F)C(F)(F)C(F)(F)C(F)(F)C(F)(F)F)cc3C2=O)C(=O)N1 (stereo partly drawn) | inactive |  | 
NCCNc1ccc2c(c1)C(=O)N(C1CCC(=O)NC1=O)C2=O (stereo not drawn) | inactive |  | Activity (EA.hy 926 [2]): inactive; Activity (EA.hy 926 [3]): inactive
O=C1CCC(N2C(=O)c3ccccc3C2=O)C(=O)N1 (stereo not drawn) [THALIDOMIDE] |  | 200 | Activity (Mus musculus [5]): inactive
